Source: US20210060016A1, “ANTICANCER AGENT” (JAPANESE FOUNDATION FOR CANCER RESEARCH, priority 2017, published 2021)

System: human colorectal cancer cell line COLO-320DM
Test: MTT assay, combination of test compound and other anticancer agents
Assay type: cell-based
Conditions: Examples 9 to 14, COLO-320DM: test compound added at the concentration shown in FIGS. 9 to 14 to irinotecan (SN-38); survival with only irinotecan = 100%
Experimental: The ratio of residual cells in treatment of the human colorectal cancer cell line COLO-320DM with a combination of the compound prepared in each Compound Example (test compound or tankyrase inhibitory compound) and each of the anticancer agents was measured to evaluate the cell killing effect of the combination on the human colorectal cancer cell line COLO-320DM. The combinations of test compounds and anticancer agents are as follows.
(Example 8): combination of the compound prepared in Compound Example 5 and temozolomide, melphalan, gemcitabine, cytarabine (Ara-C), fluorouracil (5-FU), pemetrexed, mercaptopurine, methotrexate, irinotecan (SN-38), etoposide (VP-16), actinomycin D, daunorubicin, doxorubicin, bleomycin, mitoxantrone, oxaliplatin, carboplatin or cisplatin (Example 9): combination of the compound prepared in Compound Example 110 (G007-LK) and irinotecan (SN-38) (Example 10): combination of the compound prepared in Compound Example 11 and irinotecan (SN-38) (Example 11): combination of the compound prepared in Compound Example 19 and irinotecan (SN-38) (Example 12): combination of the compound prepared in Compound Example 101 and irinotecan (SN-38) (Example 13): combination of the compound prepared in Compound Example 1 and irinotecan (SN-38) (Example 14): combination of the compound prepared in Compound Example 113 and irinotecan (SN-38)
Commercially available compounds were used for temozolomide (manufactured by Sigma-Aldric), melphalan (manufactured by Signa-Aldrich), gemcitabine (Gemcitabine hydrochloride; manufactured by Sigma-Aldric), cytarabine (Cytosine β-D-arabinofuranoside (Ara-C); manufactured by Sigma-Aldrich), fluorouracil (5-Fluorouracil (5-FU); manufactured by Sigma-Aldrich), pemetrexed (Pemetrexed disodium heptahydrate; manufactured by Sigma-Aldrich), mercaptopurine (6-Mercaptopurine monohydrate; manufactured by Sigma-Aldrich), methotrexate (Methotrexate hydrate; manufactured by Sigma-Aldrich), irinotecan (7-Ethyl-10-hydroxycamptothecin (SN-38); manufactured by Sigma-Aldrich), etoposide (Etoposide (VP-16); manufactured by Enzo Life Sciences, Inc.), actinomycin D (manufactured by nacalai tesque), daunorubicin (Daunorubicin hydrochloride; Calbiochem), doxorubicin (Doxorubicin hydrochloride; manufactured by Sigma-Aldrich), bleomycin (Bleomycin sulfate; manufactured by Enzo Life Sciences, Inc.), mitoxantrone (Mitoxantrone dihydrochloride; manufactured by Sigma-Aldrich), oxaliplatin (manufactured by Sigma-Aldrich), carboplatin (manufactured by Sigma-Aldrich) and cisplatin (manufactured by Enzo Life Sciences, Inc.).
First, the human colorectal cancer cell line COLO-320DM was suspended in RPMI1640 medium (hereinafter, medium) containing inactivated 10% fetal bovine serum, and the cells were seeded in a 96-well microplate at 350 cells (75 μL) per well. The cells were subjected to stationary culture overnight in a CO2 incubator at 37° C. Thereafter, in Example 8, a medium (25 μL) containing a combination of the compound prepared in Compound Example 5 and each of the anticancer agents was added in triplicate in such a manner that the final concentrations of the test compound (compound prepared in Compound Example 5) were 0 nM or 30 nM and that the final concentrations of each anticancer agent were those shown in Table 14. In Examples 9 to 14, a medium (25 μL) containing a combination of the compound prepared in each of Compound Examples and each of the anticancer agents was added in triplicate in such a manner that the final concentrations of the test compound were 0 nM or those shown in FIGS. 9 to 14. As a control, 25 μL of a medium containing only dimethyl sulfoxide (DMSO) which is a solvent was added. […]

SMILES | cell survival rate
CCOc1ccc(-c2n[nH]nc2[C@H]2NC(=O)c3cccc(C)c3N2)cc1 [Compound Example 101, (2R)-2-[5-(4-Ethoxyphenyl)-2H-1,2,3-triazol-4-yl]-8-methyl-2,3-dihydro-1H-quinazolin-4-one] | about 50%
COc1ccc(-c2c[nH]nc2C2NC(=O)c3cccc(C)c3N2)cc1 (centres unmarked) [Compound Example 113, 2-[4-(4-Methoxyphenyl)-1H-pyrazol-3-yl]-8-methyl-2,3-dihydro-1H-quinazolin-4-one] | about 50%
